The values that follow are results of earlier work, collected in patent publication US7994325B2, “CGRP receptor antagonists” (Merck Sharp & Dohme Corp., priority 2005, dated 2011).

Ends that are not written are not given here.

For data set [1], the system named is CGRP receptors. To be noted: marmoset (Doods et al. 2000).
For data set [2], the system named is CGRP receptors. The conditions noted are these: intravenously administered (Olesen et al. 2004).
In data set [3] the test system is CGRP receptors. To be noted: rats, prior administration (Williamson et al. 1997).
Data set [4] has as its system CGRP receptors. To be noted: rat (Escott et al. 1995).

On to `NCCCC[C@H](NC(=O)[C@@H](Cc1cc(Br)c(O)c(Br)c1)NC(=O)N1CCC(N2Cc3ccccc3NC2=O)CC1)C(=O)N1CCN(c2ccncc2)CC1` [BIBN4096BS], for which, in the data set on CGRP receptors [1], the “effect on increase in facial blood flow” value is “blocked”. In addition, the “clinical efficacy and safety in migraine” value with CGRP receptors [2] is “safe and effective acute treatment for migraine”.

For “CGRP(8-37): "a fragment of CGRP that lacks seven N-terminal amino acid residues, is a selective antagonist of CGRP1"; "a peptide CGRP antagonist" (VTHRLAGLLSRSGGVVKNNFVPTNVGSKAF; ends and bridges not checked; UniProt P06881 90-119, looked up, fragment)”, in the data set with CGRP receptors [3], the “effect on increase in diameter of the middle meningeal artery” value was “blocked”. The “effect on increased facial blood flow” value with CGRP receptors [4] is given as “inhibited”.
